How the values were obtained:
SurA = SurA (Escherichia coli, UniProt P0ABZ6); test: Luciferase-based SurA activity assay (primary assay, in-house); type: biochemical, E. coli; conditions: n/d: no signal detected; for Primary Assay ICmax: QHL-10 derivatives, dose response up to 125 μM; for Primary Assay Amplitude: amplitude of signal
Excerpt: The biological function of SurA is to bind and to keep outer membrane proteins that have reached the periplasm in an unfolded but folding-competent state. The inventors' assay is based on this interaction and uses firefly Luciferase (fLuc) as a non-native substrate. […] This is exploited in the assay (FIG. 3). The loss of tertiary structure of fLuc leads to the exposure of binding sites for SurA. It is known that SurA binds selectively to a special group of substrates. These substrates have in common the specific patterns of hydrophobic amino acids that are highly enriched in the beta strands of integral outer membrane proteins. These motifs are present in OMPs of all Gram-negative bacteria and in fLuc as well. Upon mild heat treatment of fLuc and its subsequent partial unfolding, fLuc is accepted as a substrate by SurA. Of note, these intermediates served as reporter substrates to determine the activity of a […] folding chaperone. […] This interaction remains stable upon temperature reduction. Next, the temperature of the assay is reduced to room temperature and luciferase activity is subsequently measured by addition of Luciferin and ATP. In conditions without SurA, fLuc will refold into its active conformation resulting in a luminescence signal.
In short, the Luciferase based SurA activity assay was performed in SurA Activity Assay Buffer (40 mM HEPES pH 7.4, 20 mM MgSO4, 0.5 g/I BSA). SurA aliquots were thawn at RT, activated by mild heat treatment and cooled down to RT for 10 min. […] Solution A containing 10 mM ATP as well as 0.3 mM Luciferin (Promega Beetle Luciferin, Potassium Salt) in water was prepared. Luciferase working solution was prepared by diluting 1 ml Luciferase working stock (100 nM) with 9 ml assay buffer. 33 μl of the protein solution were added to every 2nd row of a well of a 384-well PS, white, flat bottom plate. […] Subsequently, 2 μl of compound in DMSO were added in quadruplicates (4 wells each of protein solution and buffer controls). These compound solutions could contain either various compounds or different dilutions of the same compound allowing screening inhibitor activity in a dose dependent manner. After compound addition, plates were incubated 15 min at RT. After this incubation, 5 μl of Luciferase working solution were added to each well. Next, the plates were incubated 25 min at 38° C. to partially unfold the Luciferase. Subsequently, the assay plate was cooled for 5 min at 4° C. followed by 10 min incubation at RT prior to luminescence measurement. Luminescence was measured in a TECAN infinite M200 pro plate reader for each well individually after injection of 10 μl Solution A.

E. coli ATCC 25922 = test: Sensitizer MIC assay (vancomycin); type: cell-based; conditions: vancomycin; 100 μM compound; type strain
Protocol: (§1) To test for the sensitizer properties of the compounds, the inventors then performed a sensitizer MIC assay. To this end, E. coli BW25113, E. coli JW2496-3, and E. coli ATCC 25922 inocula were prepared as described above. Each well of a 96-well plate was prefilled with a fixed compound concentration of 100 μM and a dilution series of Vancomycin ranging from […]. A sensitizing effect was defined as reduction of the MIC value of Vancomycin of the respective test strain.

E. coli BW25113 = test: Sensitizer MIC assay (vancomycin); type: cell-based; conditions: 100 μM compound, wildtype strain
Protocol: as §1

E. coli JW2496-3 = test: Sensitizer MIC assay (vancomycin); type: cell-based; conditions: 100 μM compound, more susceptible strain
Protocol: as §1

[1] = test system: E. coli BW25113, E. coli JW2496-3, E. coli ATCC 25922; test: Minimal inhibitory concentration assay (bactericidal/bacteriostatic assessment); type: cell-based; conditions: dilution series 100-1.7 μM
Excerpt: The intended effect of a SurA inhibitor should be the induction of a disturbance of the outer membrane composition resulting in an increased susceptibility to antibiotic treatment. Of note, Vancomycin is typically not used to treat infections with Gram-negative bacteria, because it is excluded by the OM and not efficient at concentrations that could be achieved in patients. However, at appropriate dosing in vitro it can be used to detect outer membrane defects. For determining a potential sensitizing effect of Vancomycin treatment, the inventors first tested whether the compounds at hand were bactericidal per se. Therefore, the inventors performed a minimal inhibitory concentration (MIC) assay. To this end, 5 ml overnight cultures of E. coli BW25113 (Keio-Collection reference strain), E. coli JW2496-3 (Keio-Collection single gene knockout for bamB, which suffers from decreased outer membrane integrity) and E. coli ATCC 25922 (a reference strain recommended for antibiotic susceptibility testing) were grown in Mueller Hinton Broth, Cation adjusted (MHB-II). The next day, the OD was adjusted to obtain 1*10^8 CFU/ml using fresh MHB-II. Next, this bacterial solution was diluted 1:100 into 20 ml fresh MHB-II. 50 μl of this bacteria solution were then transferred into each well of a 96-well plate prefilled with 50 μl MHB-II supplemented with the desired compounds. The test plates for the bactericidal assessment contained dilution series of the compounds from 100-1.7 μM. Plates were sealed with a gas permeable membrane and incubated o/n at 37° C. in a humid chamber without shaking. After o/n incubation, bacterial growth was quantified by measuring the optical density at 600 nm wavelength in a multiplate reader. Compounds showing no growth inhibition at 100 μM were considered non-bactericidal. Of note, the bactericidal effect of Vancomycin was assessed similarly for each test strain using Vancomycin concentrations ranging from […]. This was done to identify a Vancomycin concentration at which the strains just managed to survive.

Sequence of SurA (P0ABZ6 21-428): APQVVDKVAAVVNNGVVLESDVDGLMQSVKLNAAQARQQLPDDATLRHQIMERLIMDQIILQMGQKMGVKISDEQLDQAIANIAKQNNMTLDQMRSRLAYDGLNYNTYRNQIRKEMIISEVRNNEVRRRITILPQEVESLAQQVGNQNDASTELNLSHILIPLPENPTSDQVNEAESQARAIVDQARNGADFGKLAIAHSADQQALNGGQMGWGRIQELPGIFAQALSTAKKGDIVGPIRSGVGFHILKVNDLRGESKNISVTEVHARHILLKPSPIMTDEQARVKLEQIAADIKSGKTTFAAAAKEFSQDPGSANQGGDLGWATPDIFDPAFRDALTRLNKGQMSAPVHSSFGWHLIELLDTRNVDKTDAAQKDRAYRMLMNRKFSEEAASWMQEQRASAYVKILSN

Row | SMILES | Primary Assay ICmax (SurA) [µM] | Primary Assay Amplitude (SurA) | Sensitizer MIC Assay (log2-fold reduction of MIC in presence of compound) ATCC25922 (E. coli ATCC 25922) [log2-fold] | Sensitizer MIC Assay (log2-fold reduction of MIC in presence of compound) BW25113 (E. coli BW25113) [log2-fold] | Sensitizer MIC Assay (log2-fold reduction of MIC in presence of compound) JW2496-3 (E. coli JW2496-3) [log2-fold] | Bacteriostatic MIC Assay Result [1]
1 | NC(=O)c1nc(-c2ccc(F)c(N)c2)[nH]c1NC(=O)c1ccc(-c2ccccc2)cc1 [Compound 3d, 5-([1,1′-biphenyl]-4-carboxamido)-2-(3-amino-4-fluorophenyl)-1H-imidazole-4-carboxamide] | 16 | high | 0 | 0 | 0 | non-bacteriostatic
2 | CCOc1ccc2ccccc2c1C(=O)Nc1[nH]c(-c2cccc(N)c2)nc1C(N)=O [Compound 3e, 2-(3-aminophenyl)-5-(2-ethoxy-1-naphthamido)-1H-imidazole-4-carboxamide] | 64 | low | 0 | 0 | 0 | non-bacteriostatic
3 | CCOc1ccc2ccccc2c1C(=O)Nc1[nH]c(-c2ccccc2O)nc1C(N)=O [Compound 3f, 5-(2-ethoxy-1-naphthamido)-2-(2-hydroxyphenyl)-1H-imidazole-4-carboxamide] | 16 | low | 1 | 1 | 2 | non-bacteriostatic
4 | CCOc1ccc2ccccc2c1C(=O)Nc1[nH]c(-c2ccc(F)c(N)c2)nc1C(N)=O [Compound 3g, 2-(3-amino-4-fluorophenyl)-5-(2-ethoxy-1-naphthamido)-1H-imidazole-4-carboxamide] | 64 | low | 0 | 0 | 0 | non-bacteriostatic

Source: patent publication US20240336573A1, “COMPOUND FOR THE TREATMENT AND PROPHYLAXIS OF INFECTIOUS DISEASES” (Eberhard Karls Universität Tübingen Medizinische Fakultät, priority 2021, published 2024)
